Literature values, collected in patent US20160213673A1, “ENDURANCE FORMULATION AND USE” (priority 2015, published 2016).

How the values were obtained:
[1] = exhausted rats
[2] = following 4 mg/kg caffeine consumption
[3] = during the first 15 minutes of exercise
[4] = tested on: UCP3 mRNA expression in skeletal muscle; conditions: occurred within minutes of capsinoid ingestion
TRVP-1 = TRVP-1 (Homo sapiens, UniProt Q8NER1)
[5] = not given; remark: listed apart in the source
[6] = 3 mg of 9 mg of dihydrocapsiate per day for 28 days
[7] = following capsiate administration

TRVP-1, sequence (Q8NER1 whole entry): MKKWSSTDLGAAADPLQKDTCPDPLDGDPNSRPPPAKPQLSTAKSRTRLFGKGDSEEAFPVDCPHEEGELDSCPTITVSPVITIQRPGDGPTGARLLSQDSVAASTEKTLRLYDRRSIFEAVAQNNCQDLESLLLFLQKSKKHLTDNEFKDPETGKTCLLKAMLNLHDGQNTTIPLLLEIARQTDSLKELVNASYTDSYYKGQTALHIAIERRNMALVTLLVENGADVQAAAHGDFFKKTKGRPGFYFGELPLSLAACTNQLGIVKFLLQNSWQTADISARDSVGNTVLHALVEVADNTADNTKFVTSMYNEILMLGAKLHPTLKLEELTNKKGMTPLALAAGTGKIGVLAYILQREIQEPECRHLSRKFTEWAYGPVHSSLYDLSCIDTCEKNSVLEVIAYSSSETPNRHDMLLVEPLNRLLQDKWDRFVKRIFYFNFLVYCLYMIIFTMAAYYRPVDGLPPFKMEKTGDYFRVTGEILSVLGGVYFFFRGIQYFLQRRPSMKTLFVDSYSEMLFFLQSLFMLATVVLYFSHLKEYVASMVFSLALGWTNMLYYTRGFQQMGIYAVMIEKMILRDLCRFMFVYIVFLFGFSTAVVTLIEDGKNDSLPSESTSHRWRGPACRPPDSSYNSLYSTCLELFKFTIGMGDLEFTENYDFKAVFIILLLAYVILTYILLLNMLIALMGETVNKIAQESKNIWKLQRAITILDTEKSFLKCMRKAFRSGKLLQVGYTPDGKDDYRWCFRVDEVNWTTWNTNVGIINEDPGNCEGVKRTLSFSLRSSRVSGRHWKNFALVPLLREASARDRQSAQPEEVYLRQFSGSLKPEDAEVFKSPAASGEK

Q: Which ammonia toxicity [1] does the source give for `N=C(N)NCCC[C@H](N)C(=O)O` [arginine] here?
A: mitigate ammonia toxicity

Q: What does the source list for `Cn1c(=O)c2c(ncn2C)n(C)c1=O` [caffeine]?
A: plasma free fatty acids [2]: greater increase; respiratory quotient (RQ) [2]: significantly lower; decrease of glycogen utilization [3]: ≤ 50%; arginase activity (arginase): inhibits arginase activity

Q: Which “persistence of UCP3 mRNA expression in skeletal muscle” value [4] does the source give for `COc1cc(COC(=O)CCCC/C=C/C(C)C)ccc1O` [capsiate] here?
A: 2 h

Q: And the “residual glycogen in the gastrocnemius muscle” value (after 30 min of swimming)?
A: higher

Q: And the “serum free fatty acid concentration” value (after 30 min of swimming)?
A: tended to be higher

Q: And the “serum lactic acid concentration” value (after 30 min of swimming)?
A: significantly lower

Q: What about the carbohydrate oxidation [7] of the same compound?
A: reduced

Q: And the fat oxidation [7]?
A: significantly higher

Q: And the “oxygen consumption (aerobic)” value [7]?
A: significantly higher

Q: What about the “swimming time versus mice without capsiate” value (mice) of the same compound?
A: significantly longer

Q: And the “rates of TRVP-1 activation, capsiate compared with dihydrocapsiate” value (TRVP-1)?
A: similar

Q: And the “ATP cost of twitch force generation” value ([5]; mouse, in vivo)?
A: reduced

Q: What about the twitch force-generating capacity ([5]; mouse, in vivo) of the same compound?
A: increased

Q: And the “oxidative phosphorylation during rest” value ([5]; rest)?
A: not affected

Q: And the “contribution of oxidative phosphorylation to total energy turnover” value ([5]; when exercising)?
A: increased

Q: What about the glycolysis ([5]; when exercising) of the same compound?
A: reduction

Q: With `NC(=O)NCCC[C@H](N)C(=O)O` [citrulline] as the compound, how does the ammonia toxicity [1] read?
A: mitigate ammonia toxicity

Q: With `COc1cc(COC(=O)CCCCCCC(C)C)ccc1O` [dihydrocapsiate] as the compound, how does the “rates of TRVP-1 activation, capsiate compared with dihydrocapsiate” value (TRVP-1) read?
A: similar

Q: And the “post prandial energy expenditure” value [6]?
A: significant increase

Q: And the “respiratory quotient (RQ) versus placebo group” value [6]?
A: significantly lower
